The data set in a line: Storage stability of reversibly terminated nucleotides (percentage of deblocked nucleotides, in-house assay). The class given is physicochemical. To be noted: for percentage of deblocked nucleotides (3′-OH, loss of reversible terminator) over time: stored at 20° C. over 21 days (vs. 4° C.). The method, then:
FIGS. 1A-1B depict storage stability studies of nucleotides stored at both 4° C. and 20° C. over a period of 21 days. The stability of the reversibly terminated nucleotide can be measured by the % of nucleotides that lose the reversible terminator moiety (e.g., via spontaneous fragmentation or reduction to yield a 3′-OH). […] (black) and 20° C. (light). […] (black) and 20° C. (light).
The stability of a reversibly terminated nucleotide can be measured by determining the loss of the reversible terminator over time. FIGS. 1A-1B depict the storage stability of nucleotides having a linear disulfide RT and cyclic disulfide RT stored at both 4° C. and 20° C. over a period of 21 days. The linear disulfide RT tested has the structure:
A buffer containing 200 nM of each nucleotide was stored at 4° C. and 20° C. over a period of 21 days and the percentage of deblocked nucleotides (i.e., those having loss of 3′-OH reversible terminator) was determined using an in-house assay. The stability of the reversibly terminated nucleotide can be measured by the % of nucleotides that lose the reversible terminator moiety (e.g., via spontaneous fragmentation or reduction to yield a 3′-OH). […] (black) and 20° C. (light). […] (black) and 20° C. (light). As observed in FIG. 1A, the average percentage of reversible terminator loss is about 0.13%+/−0.05% when stored at 4° C., and is considered relatively stable when stored under these conditions. […] Subsequent storage stability studies indicate the nucleotides are stable, wherein the average percentage of reversible terminator loss is less than about 0.15%, beyond 120 days at both 20° C. and 4° C.

[1] abbreviates: buffer containing 200 nM nucleotide.

These results are taken from patent US20250250629A1, “NUCLEOTIDE CYCLIC CLEAVABLE MOIETIES AND USES THEREOF” (Singular Genomics Systems, Inc., priority 2022, published 2025).

On to `Cc1cn(C2CC(OC3CCCSS3)C(COP(=O)(O)OP(=O)(O)OP(=O)(O)O)O2)c(=O)[nH]c1=O` (centres unmarked) [cyclic disulfide RT], for which, under setting [1], the “percentage of deblocked nucleotides (3′-OH, loss of reversible terminator) over time” value is reported as “less prone to spontaneously losing the 3′ reversible terminator”. The “average percentage of reversible terminator loss” value is reported as “less than 0.15%” (subsequent storage stability studies, beyond 120 days at 4° C.) and “less than 0.15%” (subsequent storage stability studies, beyond 120 days at 20° C.).

For the compound `CSSC(C)OC1CC(n2cc(C)c(=O)[nH]c2=O)OC1COP(=O)(O)OP(=O)(O)OP(=O)(O)O` (centres unmarked) [linear disulfide RT, reference compound], the “average percentage of reversible terminator loss” value (buffer containing 200 nM nucleotide, stored at 4° C. over 21 days) was “about 0.13%+/−0.05”. The “percentage of deblocked nucleotides (3′-OH, loss of reversible terminator) over time” value under setting [1] is “grows over time”.
